Literature values as cited in US20080076825A1, “Novel Crystalline Forms of Entacapone and Production Thereof” (priority 2003, published 2008).

Key:
[1] = commercially available entacapone
Parkinson's disease = conditions: in combination with levodopa and a decarboxylase inhibitor; by lengthening the dosage interval and/or reducing the single dose

bioavailability [1]: 35%
SMILES: CCN(CC)C(=O)/C(C#N)=C/c1cc(O)c(O)c([N+](=O)[O-])c1 [entacapone, (E)-N,N-diethyl-2-cyano-3-(3,4-dihydroxy-5-nitrophenyl)acrylamide]
reduction of the amount of L-dopa to be administered (Parkinson's disease): 10-30%
